Experimental data as given in US11299461B2 (priority 2018, dated 2022).

target: LF 263-C catalytic domain (anthrax lethal factor) (Bacillus anthracis, UniProt P15917); test: biochemical
Sequence (P15917 296-809 limits assumed): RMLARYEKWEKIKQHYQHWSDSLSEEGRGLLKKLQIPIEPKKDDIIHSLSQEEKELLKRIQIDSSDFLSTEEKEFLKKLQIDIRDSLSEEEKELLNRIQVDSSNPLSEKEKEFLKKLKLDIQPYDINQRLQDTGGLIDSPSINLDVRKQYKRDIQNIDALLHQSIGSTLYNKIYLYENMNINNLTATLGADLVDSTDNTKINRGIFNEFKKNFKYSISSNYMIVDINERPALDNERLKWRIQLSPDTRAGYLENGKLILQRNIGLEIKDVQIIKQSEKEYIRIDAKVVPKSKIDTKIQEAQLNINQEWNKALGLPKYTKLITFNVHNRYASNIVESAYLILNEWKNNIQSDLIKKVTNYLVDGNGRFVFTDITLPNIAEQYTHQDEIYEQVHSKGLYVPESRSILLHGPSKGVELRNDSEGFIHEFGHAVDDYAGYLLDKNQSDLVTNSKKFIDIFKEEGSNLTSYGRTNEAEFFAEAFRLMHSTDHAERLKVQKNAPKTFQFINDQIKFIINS

Q: `Cc1ccc([C@@H](CO)NCCCC[C@@H](Nc2cc(C)c(F)c(C)c2)C(=O)NO)nc1` [Compound 1, (R)-2-((4-fluoro-3,5-dimethylphenyl)amino)-N-hydroxy-6-(((S)-2-hydroxy-1-(5-methylpyridin-2-yl)ethyl)amino)hexanamide] was tested. Which Ki did it give?
A: The Ki was 0.17 nM.

Q: How did the Ki turn out when `Cc1cc(N[C@H](CCCCN[C@H](CO)c2ccc(F)cn2)C(=O)NO)cc(C)c1F` [Compound 2, (R)-2-((4-fluoro-3,5-dimethylphenyl)amino)-6-(((S)-1-(5-fluoropyridin-2-yl)-2-hydroxyethyl)amino)-N-hydroxyhexanamide] was run?
A: Its Ki is 0.14 nM.

Q: `Cc1cc(N[C@H](CCCCN[C@@H](c2ccc(F)cn2)C(C)C)C(=O)NO)cc(C)c1F` [Compound 3, (R)-2-((4-fluoro-3,5-dimethylphenyl)amino)-6-(((R)-1-(5-fluoropyridin-2-yl)-2-methylpropyl)amino)-N-hydroxyhexanamide] was tested. Which Ki did it give?
A: Its Ki is 0.2 nM.

Q: How did the Ki turn out when `Cc1cc(N[C@H](CCCCN[C@@H](c2ccc(Cl)cn2)C(C)C)C(=O)NO)cc(C)c1F` [Compound 4, (R)-6-(((R)-1-(5-chloropyridin-2-yl)-2-methylpropyl)amino)-2-((4-fluoro-3,5-dimethylphenyl)amino)-N-hydroxyhexanamide] was run?
A: Its Ki is 0.45 nM.

Q: How did the Ki turn out when `CC[C@@H](NCCCC[C@@H](Nc1cc(C)c(F)c(C)c1)C(=O)NO)c1ncc(F)cc1F` [Compound 5, (R)-6-(((R)-1-(3,5-difluoropyridin-2-yl)propyl)amino)-2-((4-fluoro-3,5-dimethylphenyl)amino)-N-hydroxyhexanamide] was run?
A: The Ki was 0.39 nM.

Q: `Cc1cc(N[C@H](CCCCN[C@@H](c2ncc(F)cc2F)C(C)C)C(=O)NO)cc(C)c1F` [Compound 6, (R)-6-(((R)-1-(3,5-difluoropyridin-2-yl)-2-methylpropyl)amino)-2-((4-fluoro-3,5-dimethylphenyl)amino)-N-hydroxyhexanamide] was tested. Which Ki did it give?
A: Its Ki is 0.28 nM.

Q: Which Ki does the source give for `Cc1cc(N[C@H](CCCCN[C@H](C)c2ccc(Cl)cn2)C(=O)NO)cc(C)c1F` [Compound 7, (R)-6-(((R)-1-(5-chloropyridin-2-yl)ethyl)amino)-2-((4-fluoro-3,5-dimethylphenyl)amino)-N-hydroxyhexanamide] here?
A: Its Ki is 0.35 nM.

Q: How did the Ki turn out when `CC[C@@H](NCCCC[C@@H](Nc1cc(C)c(F)c(C)c1)C(=O)NO)c1ccc(F)cn1` [Compound 8, (R)-2-((4-fluoro-3,5-dimethylphenyl)amino)-6-(((R)-1-(5-fluoropyridin-2-yl)propyl)amino)-N-hydroxyhexanamide] was run?
A: Its Ki is 0.57 nM.

Q: With `Cc1cc(C[C@H](CCCCNCc2ccccn2)C(=O)NO)cc(C)c1F` [Compound 9, (S)-2-(4-fluoro-3,5-dimethylbenzyl)-N-hydroxy-6-((pyridin-2-ylmethyl)amino)hexanamide] as the molecule, how does the Ki read?
A: Its Ki is 1 nM.

Q: `Cc1cc(C[C@H](CCCCN[C@H](C)c2ccc(F)cn2)C(=O)NO)cc(C)c1F` [Compound 10, (S)-2-(4-fluoro-3,5-dimethylbenzyl)-6-(((R)-1-(5-fluoropyridin-2-yl)ethyl)amino)-N-hydroxyhexanamide] was tested. Which Ki did it give?
A: Its Ki is 0.15 nM.

Q: `Cc1ccc([C@@H](C)NCCCC[C@@H](Cc2cc(C)c(F)c(C)c2)C(=O)NO)nc1` [Compound 11, (S)-2-(4-fluoro-3,5-dimethylbenzyl)-N-hydroxy-6-(((R)-1-(5-methylpyridin-2-yl)ethyl)amino)hexanamide] was tested. Which Ki did it give?
A: Its Ki is 0.08 nM.

Q: For `Cc1cc(C[C@H](CCCCN[C@H](CO)c2ccc(F)cn2)C(=O)NO)cc(C)c1F` [Compound 12, (S)-2-(4-fluoro-3,5-dimethylbenzyl)-6-(((S)-1-(5-fluoropyridin-2-yl)-2-hydroxyethyl)amino)-N-hydroxyhexanamide], which Ki is on record?
A: The Ki was 0.08 nM.

Q: With `Cc1ccc([C@@H](CO)NCCCC[C@@H](Cc2cc(C)c(F)c(C)c2)C(=O)NO)nc1` [Compound 13, (S)-2-(4-fluoro-3,5-dimethylbenzyl)-N-hydroxy-6-(((S)-2-hydroxy-1-(5-methylpyridin-2-yl)ethyl)amino)hexanamide] as the molecule, how does the Ki read?
A: Its Ki is 0.07 nM.

Q: For `Cc1cc(C[C@H](CCCCN[C@H](C)c2ccc(C(F)(F)F)cn2)C(=O)NO)cc(C)c1F` [Compound 14, (S)-2-(4-fluoro-3,5-dimethylbenzyl)-N-hydroxy-6-(((R)-1-(5-(trifluoromethyl)pyridin-2-yl)ethyl)amino)hexanamide], which Ki is on record?
A: The Ki was 1.3 nM.

Q: With `CCN(CCCC[C@@H](Cc1cc(C)c(F)c(C)c1)C(=O)NO)[C@H](C)c1ccc(C(F)(F)F)cn1` [Compound 15, (S)-6-(ethyl((R)-1-(5-(trifluoromethyl)pyridin-2-yl)ethyl)amino)-2-(4-fluoro-3,5-dimethylbenzyl)-N-hydroxyhexanamide] as the molecule, how does the Ki read?
A: The Ki was 3.6 nM.

Q: `COc1ccc([C@@H](C)NCCCC[C@@H](Cc2cc(C)c(F)c(C)c2)C(=O)NO)nc1` [Compound 16, (S)-2-(4-fluoro-3,5-dimethylbenzyl)-N-hydroxy-6-(((R)-1-(5-methoxypyridin-2-yl)ethyl)amino)hexanamide] was tested. Which Ki did it give?
A: The Ki was 0.31 nM.

Q: `CCN(CCCC[C@@H](Cc1cc(C)c(F)c(C)c1)C(=O)NO)[C@H](C)c1ccc(OC)cn1` [Compound 17, (S)-6-(ethyl((R)-1-(5-methoxypyridin-2-yl)ethyl)amino)-2-(4-fluoro-3,5-dimethylbenzyl)-N-hydroxyhexanamide] was tested. Which Ki did it give?
A: The Ki was 4.5 nM.

Q: How did the Ki turn out when `Cc1cc(C[C@H](CCCCN(C)Cc2ccc(F)cn2)C(=O)NO)cc(C)c1F` [Compound 18, (S)-2-(4-fluoro-3,5-dimethylbenzyl)-6-(((5-fluoropyridin-2-yl)methyl)(methyl)amino)-N-hydroxyhexanamide] was run?
A: The Ki was 1.6 nM.

Q: With `COc1ccc(CN(C)CCCC[C@@H](Cc2cc(C)c(F)c(C)c2)C(=O)NO)nc1` [Compound 19, (S)-2-(4-fluoro-3,5-dimethylbenzyl)-N-hydroxy-6-(((5-methoxypyridin-2-yl)methyl)(methyl)amino)hexanamide] as the molecule, how does the Ki read?
A: The Ki was 1.4 nM.

Q: How did the Ki turn out when `Cc1cc(C[C@H](CCCCNC(C)(C)c2ccc(F)cn2)C(=O)NO)cc(C)c1F` [Compound 20, (S)-2-(4-fluoro-3,5-dimethylbenzyl)-6-((2-(5-fluoropyridin-2-yl)propan-2-yl)amino)-N-hydroxyhexanamide] was run?
A: The Ki was 0.19 nM.

Q: `Cc1cc(C[C@H](CCCCN[C@@H](c2ccc(F)cn2)C(C)C)C(=O)NO)cc(C)c1F` [Compound 21, (S)-2-(4-fluoro-3,5-dimethylbenzyl)-6-(((R)-1-(5-fluoropyridin-2-yl)-2-methylpropyl)amino)-N-hydroxyhexanamide] was tested. Which Ki did it give?
A: Its Ki is 0.11 nM.

Q: How did the Ki turn out when `Cc1cc(C[C@H](CCCCN[C@@H](c2ccc(Cl)cn2)C(C)C)C(=O)NO)cc(C)c1F` [Compound 22, (S)-6-(((R)-1-(5-chloropyridin-2-yl)-2-methylpropyl)amino)-2-(4-fluoro-3,5-dimethylbenzyl)-N-hydroxyhexanamide] was run?
A: Its Ki is 0.17 nM.

Q: Which Ki does the source give for `Cc1cc(C[C@H](CCCCN[C@@H](c2ncc(F)cc2F)C(C)C)C(=O)NO)cc(C)c1F` [Compound 23, (S)-6-(((R)-1-(3,5-difluoropyridin-2-yl)-2-methylpropyl)amino)-2-(4-fluoro-3,5-dimethylbenzyl)-N-hydroxyhexanamide] here?
A: The Ki was 0.25 nM.

Q: How did the Ki turn out when `Cc1cc(C[C@H](CCCCN[C@@H](C)c2ccc(F)cn2)C(=O)NO)cc(C)c1F` [Compound 24, (S)-2-(4-fluoro-3,5-dimethylbenzyl)-6-(((S)-1-(5-fluoropyridin-2-yl)ethyl)amino)-N-hydroxyhexanamide] was run?
A: The Ki was 0.44 nM.

Q: `CC[C@@H](NCCCC[C@@H](Cc1cc(C)c(F)c(C)c1)C(=O)NO)c1ncc(F)cc1F` [Compound 25, (S)-6-(((R)-1-(3,5-difluoropyridin-2-yl)propyl)amino)-2-(4-fluoro-3,5-dimethylbenzyl)-N-hydroxyhexanamide] was tested. Which Ki did it give?
A: The Ki was 0.12 nM.
